# The supplement of paper PMC10307832
# Assays:
# Test in all cases: relative viability (nuclei count vs DMSO), 5 days (fraction); higher = more cells survive
# EHT 1864 + Phenformin = compound: C1COCCN1CC2=CC(=O)C(=CO2)OCCCCCSC3=C4C=CC(=CC4=NC=C3)C(F)(F)F [EHT 1864] + N=C(N)NC(=N)NCCc1ccccc1 [Phenformin] (partner 250 µM)
# Procedure, shortened: (§1)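 Lung cancer cell lines, seeded in 1536-well plates, were treated the following day by pin tool with a single drug or with five library-drug doses (not always all listed) in √10 steps on top of a fixed anchor-drug dose. Cells were fixed and nuclei stained in one step after 5 days, and nuclei were counted. Relative viability is the nuclei count for treated wells divided by that for vehicle wells, reported as medians of duplicate plates.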
# EHT 1864 + Pictilisib = compound: C1COCCN1CC2=CC(=O)C(=CO2)OCCCCCSC3=C4C=CC(=CC4=NC=C3)C(F)(F)F [EHT 1864] + CS(=O)(=O)N1CCN(Cc2cc3nc(-c4cccc5[nH]ncc45)nc(N4CCOCC4)c3s2)CC1 [Pictilisib] (partner 1 µM)
# Procedure, shortened: as §1
# EHT 1864 + Alpelisib = compound: C1COCCN1CC2=CC(=O)C(=CO2)OCCCCCSC3=C4C=CC(=CC4=NC=C3)C(F)(F)F [EHT 1864] + Cc1nc(NC(=O)N2CCC[C@H]2C(N)=O)sc1-c1ccnc(C(C)(C)C(F)(F)F)c1 [Alpelisib] (partner 2 µM)
# Procedure, shortened: as §1
# EHT 1864 + AZD7762 = compound: C1COCCN1CC2=CC(=O)C(=CO2)OCCCCCSC3=C4C=CC(=CC4=NC=C3)C(F)(F)F [EHT 1864] + NC(=O)Nc1cc(-c2cccc(F)c2)sc1C(=O)N[C@H]1CCCNC1 [AZD7762] (partner 0.2 µM)
# Procedure, shortened: as §1
Cell Line,relative viability (EHT 1864 + Phenformin; first compound 0.04 µM),relative viability (EHT 1864 + Phenformin; first compound 0.1265 µM),relative viability (EHT 1864 + Phenformin; first compound 0.4 µM),relative viability (EHT 1864 + Phenformin; first compound 1.265 µM),relative viability (EHT 1864 + Phenformin; first compound 4 µM),relative viability (EHT 1864 + Pictilisib; first compound 0.04 µM),relative viability (EHT 1864 + Pictilisib; first compound 0.1265 µM),relative viability (EHT 1864 + Pictilisib; first compound 0.4 µM),relative viability (EHT 1864 + Pictilisib; first compound 1.265 µM),relative viability (EHT 1864 + Pictilisib; first compound 4 µM),relative viability (EHT 1864 + Alpelisib; first compound 0.04 µM),relative viability (EHT 1864 + Alpelisib; first compound 0.1265 µM),relative viability (EHT 1864 + Alpelisib; first compound 0.4 µM),relative viability (EHT 1864 + Alpelisib; first compound 1.265 µM),relative viability (EHT 1864 + Alpelisib; first compound 4 µM),relative viability (EHT 1864 + AZD7762; first compound 0.04 µM),relative viability (EHT 1864 + AZD7762; first compound 0.1265 µM),relative viability (EHT 1864 + AZD7762; first compound 0.4 µM),relative viability (EHT 1864 + AZD7762; first compound 1.265 µM),relative viability (EHT 1864 + AZD7762; first compound 4 µM)
LXF-289,0.517,0.463,0.507,0.549,0.547,0.788,0.766,0.755,0.794,0.727,1.1,1,1,0.968,0.912,1.14,1.01,1.03,1.07,1.1
NCI-H23,0.778,0.477,0.784,0.604,0.775,0.476,,0.432,0.593,0.55,0.664,,0.781,0.738,0.807,0.203,0.231,0.223,0.198,0.221
NCI-H322M,0.798,0.739,0.752,0.783,0.824,0.519,0.514,0.533,0.529,0.572,0.763,0.747,0.821,0.81,0.959,0.601,0.501,0.589,0.577,0.667
NCI-H358,0.328,0.338,0.367,0.345,0.303,0.349,,0.342,0.315,0.3,0.798,,0.877,0.965,0.837,0.558,0.587,0.536,0.556,0.456
